The values below come from patent US20210060016A1, “ANTICANCER AGENT” (JAPANESE FOUNDATION FOR CANCER RESEARCH, priority 2017, published 2021).

The target of one test is T1, tankyrase 2 (Homo sapiens, UniProt Q9H2K2).
T1 construct: tankyrase 2 (613-1, 116aa, ANK5+SAM+PARP); made in house; host or cells: cell-free protein expression system
Description: Tankyrase inhibitory activity test (ELISA, auto-poly(ADP-ribosyl)ation), TNKS2. The note with it: Flag-tagged tankyrase 2 (ANK5+SAM+PARP), read-out: TNKS2 (inhibitory activity against tankyrase 2), IC50 rating. Type of test: biochemical. Here is the method:
(§1) The enzymatic activity of tankyrase 1 and the enzymatic activity of tankyrase 2 were measured by the ELISA method based on assessment of auto-poly(ADP-ribosyl)ation to evaluate the tankyrase inhibitory activity of the compound prepared in each of Compound Examples (test compound) (inhibitory activity against tankyrase 1 (TNKS1) and inhibitory activity against tankyrase 2 (TNKS2)). First, Flag-tagged tankyrase 1 (1,024-1, 327aa, SAM+PARP) and tankyrase 2 (613-1, 116aa, ANK5+SAM+PARP) were synthesized with a cell-free protein expression system, and diluted with a Tris buffer solution (50 mM Tris-HCl (pH 8.0), 150 mM NaCl, 10% glycerol). 50 μL of the diluted tankyrase 1 or tankyrase 2 was added to a plate with an anti-FLAG M2 monoclonal antibody immobilized thereon (Anti-FLAG High-Sensitivity M2-Coated Plate) (Sigma-Aldrich), and the mixture was left to stand overnight at 4° C. Thereafter, the plate was washed four times with a PBS (PBST) buffer containing 0.1% TritonX-100.
(§2) Subsequently, the test compound diluted with an assay buffer (50 mM Tris-HCl (pH 8.0), 4 mM MgCl2, 0.2 mM DTT) (DMSO was used as a control) was added to each well of the plate, and the mixture was left to stand at room temperature for 10 minutes. Thereafter, a biotin-labeled NAD solution (225 μM NAD, 25 μM 6-Biotin-17-NAD (Travigen, Inc.)) was added and mixed as a donor substrate, and the mixture was reacted at 30° C. for 45 minutes. To blank wells was added distilled water instead of the biotin-labeled NAD solution. After the reaction, the plate was washed with a PBST buffer four times. Thereafter, HRP (horseradish peroxidase)-labeled streptavidin (Travigen, Inc.) was diluted with a PBS buffer by 1,000 times, and added to each well, and the mixture was reacted at room temperature for 20 minutes. The plate was washed with a PBST buffer four times, a chemiluminescent substrate solution TACS-Sapphire (Travigen, Inc.) was then added to each well, the mixture was reacted at room temperature for 20 minutes, and thechemiluminescence intensity was measured using a chemiluminescence measuring apparatus.
(§3) The residual enzymatic activity in the presence of the test compound was determined from the following expression. On the basis of the residual enzymatic activity at each of multiple concentrations of the test compound, the enzyme inhibitory activity was calculated in terms of a 50%-inhibition concentration (IC50 value) using data analysis software Origin (LightStone Corp.). Residual activity (%)={(chemiluminescence intensity with test compound added)−(chemiluminescence intensity of blank)}/{(chemiluminescence intensity of control)−(chemiluminescence intensity of blank))
In general terms: In an ELISA, binding on a coated surface is turned into a signal by an enzyme label.

In test [1] the test system is human colorectal cancer cell line COLO-320DM. Description: Cell proliferation inhibitory activity test (Celltiter-Glo). The following applies: 96 hours, read-out: COLO-320DM (cell proliferation inhibitory activity), G150 rating. It is filed as cell-based. Here is the method: The cell proliferation inhibitory activity of the compound, which had been prepared in each of Compound Examples, against the human colorectal cancer cell line COLO-320DM was evaluated by Celltiter-Glo Luminescent Cell Viability Assay (Promega Corporation; G7573). COLO-320DM cells were cultured in RPMI-1640 medium containing 2 mM glutamine (Wako Pure Chemical Industries, Ltd; 189-02025) supplemented with 10% fetal bovine serum. The cultured cells were washed with PBS, and then dissociated with trypsin/EDTA, and a cell solution with 3×10^4 cells/mL was prepared.
Subsequently, the cell solution was seeded in a 96-well microplate (Thermo/Nunc Company; 136101) in an amount of 70 μL per well, and cultured overnight under the condition of 37° C. and 5% COz. The next day, a test compound solution obtained by diluting the test compound (DMSO solution) with a cell culture medium (final concentration of DMSO was 1%) was added in an amount of 10 μL per well, and the mixture was reacted under the condition of 37° C. and 5% CO2 for 96 hours (a 1% DMSO solution was used as a control). Thereafter, a Celltiter-Glo Luminescent Cell Viability Assay reagent was added (Promega Corporation; G7573) in an amount of 80 μL per well, the mixture was stirred with a shaker for 2 minutes while light was blocked with an aluminum foil, and the mixture was incubated at room temperature for 10 minutes.
Thereafter, a luminescence signal was measured with a luminometer (Biotech Company; Synergy). The ratio of cell proliferation in each compound addition group to cell proliferation in a control group containing no test compound solution, where cell proliferation in the control group is 100%, was determined, and the value of a compound concentration necessary for suppressing the amount of residual cells to 50% of that in the control (G150) was calculated as the cell proliferation inhibitory activity. For the COLO-320DM (cell proliferation inhibitory activity against COLO-320DM) of each test compound as measured through the above-mentioned method, a test compound having a G150 value of less than 1 μM was rated “A”, a test compound having a G150 value of 1 μM or more and less than 10 μM was rated “B”, a test compound having a G150 value of 10 μM or more was rated “C”, and an unevaluated test compound was designated as “NT”.
(In general: ATP-based viability assays read luminescence as a measure of living cells.)

The next test deals with T2, tankyrase 1 (Homo sapiens, UniProt O95271).
T2 construct: tankyrase 1 (1,024-1, 327aa, SAM+PARP); made in house; host or cells: cell-free protein expression system
Description: Tankyrase inhibitory activity test (ELISA, auto-poly(ADP-ribosyl)ation), TNKS1. The note with it: Flag-tagged tankyrase 1 (SAM+PARP), read-out: TNKS1 (inhibitory activity against tankyrase 1), IC50 rating. It is filed as biochemical. As for the experimental part:
as §1, §2, §3

For test [2], the system named is human colorectal cancer cell line COLO-320DM. Description: MTT assay, combination of test compound and other anticancer agents. It is filed as cell-based. Here is the method:
The ratio of residual cells in treatment of the human colorectal cancer cell line COLO-320DM with a combination of the compound prepared in each Compound Example (test compound or tankyrase inhibitory compound) and each of the anticancer agents was measured to evaluate the cell killing effect of the combination on the human colorectal cancer cell line COLO-320DM. The combinations of test compounds and anticancer agents are as follows.
(Example 8): combination of the compound prepared in Compound Example 5 and temozolomide, melphalan, gemcitabine, cytarabine (Ara-C), fluorouracil (5-FU), pemetrexed, mercaptopurine, methotrexate, irinotecan (SN-38), etoposide (VP-16), actinomycin D, daunorubicin, doxorubicin, bleomycin, mitoxantrone, oxaliplatin, carboplatin or cisplatin (Example 9): combination of the compound prepared in Compound Example 110 (G007-LK) and irinotecan (SN-38) (Example 10): combination of the compound prepared in Compound Example 11 and irinotecan (SN-38) (Example 11): combination of the compound prepared in Compound Example 19 and irinotecan (SN-38) (Example 12): combination of the compound prepared in Compound Example 101 and irinotecan (SN-38) (Example 13): combination of the compound prepared in Compound Example 1 and irinotecan (SN-38) (Example 14): combination of the compound prepared in Compound Example 113 and irinotecan (SN-38)
Commercially available compounds were used for temozolomide (manufactured by Sigma-Aldric), melphalan (manufactured by Signa-Aldrich), gemcitabine (Gemcitabine hydrochloride; manufactured by Sigma-Aldric), cytarabine (Cytosine β-D-arabinofuranoside (Ara-C); manufactured by Sigma-Aldrich), fluorouracil (5-Fluorouracil (5-FU); manufactured by Sigma-Aldrich), pemetrexed (Pemetrexed disodium heptahydrate; manufactured by Sigma-Aldrich), mercaptopurine (6-Mercaptopurine monohydrate; manufactured by Sigma-Aldrich), methotrexate (Methotrexate hydrate; manufactured by Sigma-Aldrich), irinotecan (7-Ethyl-10-hydroxycamptothecin (SN-38); manufactured by Sigma-Aldrich), etoposide (Etoposide (VP-16); manufactured by Enzo Life Sciences, Inc.), actinomycin D (manufactured by nacalai tesque), daunorubicin (Daunorubicin hydrochloride; Calbiochem), doxorubicin (Doxorubicin hydrochloride; manufactured by Sigma-Aldrich), bleomycin (Bleomycin sulfate; manufactured by Enzo Life Sciences, Inc.), mitoxantrone (Mitoxantrone dihydrochloride; manufactured by Sigma-Aldrich), oxaliplatin (manufactured by Sigma-Aldrich), carboplatin (manufactured by Sigma-Aldrich) and cisplatin (manufactured by Enzo Life Sciences, Inc.).
First, the human colorectal cancer cell line COLO-320DM was suspended in RPMI1640 medium (hereinafter, medium) containing inactivated 10% fetal bovine serum, and the cells were seeded in a 96-well microplate at 350 cells (75 μL) per well. The cells were subjected to stationary culture overnight in a CO2 incubator at 37° C. Thereafter, in Example 8, a medium (25 μL) containing a combination of the compound prepared in Compound Example 5 and each of the anticancer agents was added in triplicate in such a manner that the final concentrations of the test compound (compound prepared in Compound Example 5) were 0 nM or 30 nM and that the final concentrations of each anticancer agent were those shown in Table 14. In Examples 9 to 14, a medium (25 μL) containing a combination of the compound prepared in each of Compound Examples and each of the anticancer agents was added in triplicate in such a manner that the final concentrations of the test compound were 0 nM or those shown in FIGS. 9 to 14. As a control, 25 μL of a medium containing only dimethyl sulfoxide (DMSO) which is a solvent was added. […]
On the technique in general: Formazan colour is commonly taken as a measure of viable cells.

Setting [3] is: Examples 9 to 14, COLO-320DM: test compound added at the concentration shown in FIGS. 9 to 14 to irinotecan (SN-38), survival with only irinotecan = 100%.

T1 sequence (Q9H2K2 613-1166): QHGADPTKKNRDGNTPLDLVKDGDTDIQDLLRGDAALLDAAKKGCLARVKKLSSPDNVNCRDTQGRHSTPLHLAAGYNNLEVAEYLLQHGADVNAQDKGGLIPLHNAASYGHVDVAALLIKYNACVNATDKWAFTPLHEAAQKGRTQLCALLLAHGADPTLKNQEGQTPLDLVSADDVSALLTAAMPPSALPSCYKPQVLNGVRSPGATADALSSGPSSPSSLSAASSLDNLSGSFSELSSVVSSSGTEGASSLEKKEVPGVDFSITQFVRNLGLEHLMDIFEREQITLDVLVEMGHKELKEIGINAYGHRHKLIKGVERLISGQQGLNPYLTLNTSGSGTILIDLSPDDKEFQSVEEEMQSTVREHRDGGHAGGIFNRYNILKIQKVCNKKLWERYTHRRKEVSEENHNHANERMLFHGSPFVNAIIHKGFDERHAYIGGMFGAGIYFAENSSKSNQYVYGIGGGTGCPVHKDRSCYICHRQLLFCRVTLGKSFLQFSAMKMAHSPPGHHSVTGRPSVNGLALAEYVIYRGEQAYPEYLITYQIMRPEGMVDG
T2 sequence (O95271 1024-1327): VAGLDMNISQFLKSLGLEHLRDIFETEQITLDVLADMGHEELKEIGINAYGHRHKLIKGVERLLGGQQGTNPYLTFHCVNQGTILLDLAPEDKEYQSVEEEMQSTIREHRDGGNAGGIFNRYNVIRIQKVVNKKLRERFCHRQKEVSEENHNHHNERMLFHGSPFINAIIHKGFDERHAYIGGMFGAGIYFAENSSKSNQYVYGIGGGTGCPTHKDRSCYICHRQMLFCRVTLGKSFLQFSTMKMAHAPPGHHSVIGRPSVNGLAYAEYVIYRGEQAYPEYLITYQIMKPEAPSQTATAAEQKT

As to `CN1CCCc2c1nc(N1CCC3(CC1)C(=O)N(C)c1cc(C4CCC(O)CC4)cc(F)c13)[nH]c2=O` (stereo not drawn) [Example 22], the IC50 on tankyrase 2 is 20 to 200 nM; in test [1] it was under 1000 nM; on tankyrase 1, under 20 nM.

As for `C[C@@H]1CN(c2cc(F)c3c(c2)N(C)C(=O)C32CCN(c3nc4c(c(=O)[nH]3)CCCN4)CC2)C[C@H](C)O1` [Example 23], the IC50 is under 20 nM on tankyrase 2, under 1000 nM in test [1] and under 20 nM on tankyrase 1.

For `C[C@@H]1CN(c2cc(F)c3c(c2)N(CC(F)(F)F)C(=O)C32CCN(c3nc4c(c(=O)[nH]3)CCCN4)CC2)C[C@H](C)O1` [Example 24], the IC50 on tankyrase 2 is under 20 nM; in test [1], under 1000 nM; on tankyrase 1 it was under 20 nM.

Consider `CN1CCN(c2cc(F)c3c(c2)N(C)C(=O)C32CCN(c3nc4c(c(=O)[nH]3)CCCN4C)CC2)CC1` [compound 5, 4-Fluoro-1-methyl-1′-(8-methyl-4-oxo-3,4,5,6,7,8-hexahydropyrido [2,3-d]pyrimidin-2-yl)-6-(4-methylpiperazin-1-yl)spiro [indolin-3,4′-piperidin]-2-one], for which the cell survival rate result in test [2] (Example 8, COLO-320DM: test compound further added at 30 nM to each anticancer agent (temozolomide ... cisplatin), survival with only the anticancer agent = 100%) was “about 50%”.

Turning to `CN1CCCc2c1nc(N1CCC3(CC1)C(=O)N(C)c1cc(N4CCC(C(=O)O)CC4)cc(F)c13)[nH]c2=O` [compound 11, 1-[4-Fluoro-1-methyl-1′-(8-methyl-4-oxo-3,4,5,6,7,8-hexahydropyrido [2,3-d]pyrimidin-2-yl)-2-oxospiro[indolin-3,4′-piperidin]-6-yl]piperidin-4-carboxylic acid], the cell survival rate entry in test [2] (setting [3]) is “about 50%”.

Take `C[C@@H]1CN(c2cc(F)c3c(c2)N(C)C(=O)C32CCN(c3nc4c(c(=O)[nH]3)CCCN4C)CC2)C[C@H](C)O1` [compound 19]: the cell survival rate result in test [2] (setting [3]) is given as “about 50%”.
